The text below walks through data of publication PMC11057141, “Untangling the mess of CGRP levels as a migraine biomarker: an in-depth literature review and analysis of our experimental experience” (The Journal of Headache and Pain, 2024).

No end group written: not given here.

Data set [1] concerns CGRP. As to conditions: mean ± SEM, cited from earlier work.
Data set [2] has as its system CGRP. Also on record: method as in PMID 16472331. The conditions noted are these: MWA, mean ± SEM, cited from earlier work.
The subject of data set [3] is CGRP. Also noted: method as in PMID 15689192. As to conditions: MWA, ictal, cited from earlier work.
Data set [4] deals with CGRP. Also on record: method as in PMID 8388188. As to conditions: 8 migraineurs, ictal, subcutaneous sumatriptan, mean ± SE; pre-treatment 60 ± 8; cited from earlier work.
The nature of data set [5]: Long-term storage of serum at -80°C, sandwich ELISA. The data set is classed as in vitro ADME. The conditions noted are these: human serum. The protocol: (§1) We tested 4 different ELISA kit references with serum samples, 2 based on competitive ELISA (Biorbyt, UK, ref: orb438605; BMA Biomedicals, Switzerland, ref: S-1198), specifically designed for the detection of total-CGRP, and 2 based on ELISA sandwich (Abbexa, UK, ref: abx257902; CUSABIO, China, ref: CSB-E08210h), designed for the detection of alpha and beta-CGRP, respectively. All 4 of these products were assayed multiple times (at least 4 for each kit reference) to analyse the optimal dilutions of the samples, their reproducibility and their reported concentrations. All the procedures were carried out strictly following the manufacturer’s instructions of use of their products, they were performed by the same researcher, using the same equipment, and in the same facilities. […] All the samples were measured in duplicate, obtained from morning blood extractions, 9–12 am, from patients in a fast of at least 12h. These samples were let to clot for 10–15 min, centrifuged at 3500 rpm for 10 min and then immediately stored at -80°C until assayed. A standard curve was generated for every single batch, and they were calculated using a 4-parameter logistic (4-PL) regression with r^2 > 0.999.
We assayed 11 consecutive samples from previous works (36.4% male; age range: 26–65) that had been stored at -80°C for more than 6 months and which had been assayed altogether before being stored for a month and before reaching this time point.
(In general: An ELISA detects its analyte on a solid surface through an enzyme-linked reagent.)

A short description of data set [6]: Influence of sample processing time: serum kept at 4°C before freezing at -80°C, sandwich ELISA. The data set is classed as in vitro ADME, human. The protocol: as §1
We recruited 6 individuals without history of migraine and subjective absence of headache at the day of the sampling (50% male; age range: 24–65 years). […] The blood was then let to clot for 10 min at room temperature, then centrifuged at 3500 rpm for 10 min to obtain serum. Serum was divided into 4 tubes. First one was immediately stored at -80°C, the other three were kept in the refrigerator at 4°C for, 2, 4 and 24 h respectively before frozen. None of the samples were added peptidase inhibitor. These samples were measured by triplicate.

The conditions of data set [7]: infused in humans; cited from earlier work. From the text: The relevance of the peptide goes beyond its use as a therapeutical target, having been proposed as a biomarker in migraine.
The conditions of data set [8]: frozen samples; cited from earlier work. From the text: Another point recurrently mentioned in the literature is the long-term stability of the molecules when frozen. […] This opens up the question about whether c ...
For data set [9], the system named is CGRP. The conditions noted are these: 32 MWA; exact values not displayed; cited from earlier work. From the text:
Table 1 Charasteristics of the studies measuring CGRP in migraine patients | column: Main findings relate to CGRP

Data set [10] concerns CGRP. As to conditions: cited from earlier work; for plasma CGRP 4 months after treatment cessation (V2), median (IQR) / plasma CGRP at last injection (V1), median (IQR): EM and CM patients, controls 32.6(21.3–44.6). The text has this:
Table 1 Charasteristics of the studies measuring CGRP in migraine patients | column: Concentrations

Where [11] appears, read: EM without aura, mean ± SD, T0 86.9 ± 24.1.
Setting [12] is: healthy controls, mean ± SD, T0 87.9 ± 21.3.

`O=[N+]([O-])OCC(CO[N+](=O)[O-])O[N+](=O)[O-]` [nitroglyceri, nitroglycerin]: in the data set on CGRP [1] (basal 15.1 ± 2.0), the “plasma CGRP, controls T1” value is 17.5 pmol/L; the “plasma CGRP, controls T2” value is recorded as 16.5 pmol/L; the “plasma CGRP, controls T3” value is given as 15.3 pmol/L. Besides, in the data set on CGRP [1] (basal 18.4 ± 1.7), the “plasma CGRP, migraineurs T1” value is listed as 19.7 pmol/L; the “plasma CGRP, migraineurs T2” value is 22.2 pmol/L; the “plasma CGRP, migraineurs T3” value is recorded as 21.0 pmol/L.
With `CN(C)CCc1c[nH]c2ccc(Cn3cncn3)cc12` [rizatriptan], in the data set with CGRP [2] (before rizatriptan 7.4 ± 2.4), the “plasma (JV) CGRP, non-responders 1 h” value is 7.6 pmol/L; the “plasma (JV) CGRP, non-responders 2 h” value was 7.9 pmol/L; the “plasma (JV) CGRP, non-responders 4 h” value was 7.7 pmol/L; the “plasma (JV) CGRP, non-responders 6 h” value is reported as 7.3 pmol/L. Also, in the data set with CGRP [2] (before rizatriptan 7.4 ± 2.4), the “plasma (JV) CGRP, non-responders 12 h” value was 7.2 pmol/L. In addition, in the data set with CGRP [2] (before rizatriptan 12.2 ± 3.2), the “plasma (JV) CGRP, responders 1 h” value is recorded as 7.6 pmol/L; the “plasma (JV) CGRP, responders 2 h” value is listed as 3.4 pmol/L; the “plasma (JV) CGRP, responders 4 h” value is reported as 2.6 pmol/L; the “plasma (JV) CGRP, responders 6 h” value is reported as 2.3 pmol/L. The “plasma (JV) CGRP, responders 12 h” value in the data set with CGRP [2] (before rizatriptan 12.2 ± 3.2) is recorded as 2.1 pmol/L.
For `CNS(=O)(=O)Cc1ccc2[nH]cc(CCN(C)C)c2c1` [sumatriptan], the “plasma CGRP 1 h after sumatriptan, responders” value with CGRP [3] (n = 6, mean ± SEM, before 16.9 ± 2.8) is reported as 14.7 pmol/L. Also, the “plasma CGRP 1 h after sumatriptan, non-responders” value in the data set on CGRP [3] (n = 13, mean ± SEM, before 24.3 ± 2.5) is listed as 23.8 pmol/L. Further, the “plasma (JV) CGRP post-treatment” value with CGRP [4] is 40 pmol/L.
Calcitonin gene-related peptide [CGRP]: in data set [5], the “effect of storage at -80°C of more than 6 months on CGRP levels” value is “decrease”. Also, the “CGRP content in serum stored at 4°C” value in [6] (first 24 h at 4°C after clotting and immediate centrifugation) was “preserved”. For the same molecule, the “effect of infusion in humans” value in [7] is “induction of migraine-like headaches”. The “effect of frozen storage of 8 months on CGRP concentration” value in data set [8] was “significantly decrease”.
Turning to “Pituitary adenylate cyclase activating peptide-38 (HSDGIFTDSYSRYRKQMAVKKYLAAVLGKRYKQRVKNK; ends and bridges not checked; UniProt P18509 132-169, looked up) [PACAP38]”, in the data set with CGRP [9], the “effect of PACAP38 infusion on CGRP concentrations” value is on record as “PACAP38 infusion do not causes changes in CGRP concentrations”.
With “Vasoactive intestinal peptide (HSDAVFTDNYTRLRKQMAVKKYLNSILN; ends and bridges not checked; UniProt P01282 125-152, looked up) [VIP]”, in the data set with CGRP [10] (setting [11]), the “plasma CGRP, VIP infusion Migraine T30” value was 94.2 pg/mL; the “plasma CGRP, VIP infusion Migraine T60” value was 95.1 pg/mL; the “plasma CGRP, VIP infusion Migraine T90” value is recorded as 87.5 pg/mL; the “plasma CGRP, VIP infusion Migraine T120” value is recorded as 88.7 pg/mL. In addition, in the data set on CGRP [10] (setting [11]), the “plasma CGRP, VIP infusion Migraine T150” value is 85.1 pg/mL and the “plasma CGRP, VIP infusion Migraine T180” value was 83.3 pg/mL. Besides, in the data set with CGRP [10] (setting [12]), the “plasma CGRP, VIP infusion HC T30” value is listed as 102.1 pg/mL; the “plasma CGRP, VIP infusion HC T60” value is 109.3 pg/mL; the “plasma CGRP, VIP infusion HC T90” value is given as 104.1 pg/mL; the “plasma CGRP, VIP infusion HC T120” value is 110.1 pg/mL. In addition, in the data set on CGRP [10] (setting [12]), the “plasma CGRP, VIP infusion HC T150” value is 97.8 pg/mL and the “plasma CGRP, VIP infusion HC T180” value is on record as 98.2 pg/mL.
With “beta-CGRP: endogenous neuropeptide encoded in CALCB, differs from alpha-CGRP in 3 of 37 amino acids”, the “serum concentration, measured before one month of storage at -80°C” value in [5] (11 samples, ELISA Abbexa (alpha) / CUSABIO (beta), mean ± SD) came to 4.9 ± 2.0 pg/mL. The “serum concentration after more than 6 months of storage at -80°C” value in data set [5] (same 11 samples, ELISA Abbexa (alpha) / CUSABIO (beta), mean ± SD, p < 0.01 vs first measurement) is given as 3.0 ± 1.3 pg/mL. The “serum concentration after 2 h at 4°C” value in data set [6] (human serum, no peptidase inhibitor, 2 h at 4°C before -80°C, ELISA Abbexa (alpha) / CUSABIO (beta), mean ± SD, 6 subjects, triplicate) was found to be 4.9 ± 1.7 pg/mL. Moreover, in [6] (human serum, no peptidase inhibitor, 4 h at 4°C before -80°C, ELISA Abbexa (alpha) / CUSABIO (beta), mean ± SD, 6 subjects, triplicate), the “serum concentration after 4 h at 4°C” value worked out at 4.7 ± 1.5 pg/mL. Also, the “serum concentration after 24 h at 4°C” value in data set [6] (human serum, no peptidase inhibitor, 24 h at 4°C before -80°C, ELISA Abbexa (alpha) / CUSABIO (beta), mean ± SD, 6 subjects, triplicate) is reported as 4.4 ± 1.8 pg/mL. Further, the “serum concentration, deep frozen right away” value in data set [6] (human serum, no peptidase inhibitor, clot 10 min RT, 3500 rpm 10 min, immediately -80°C, ELISA Abbexa (alpha) / CUSABIO (beta), mean ± SD, 6 subjects, triplicate) is 4.6 ± 1.6 pg/mL.

B1: Erenumab: anti-CGRP(-receptor) monoclonal antibody (antibody, chains of the INN, looked up, V domains shown)
VH: QVQLVESGGGVVQPGRSLRLSCAASGFTFSSFGMHWVRQAPGKGLEWVAVISFDGSIKYSVDSVKGRFTISRDNSKNTLFLQMNSLRAEDTAVYYCARDRLNYYDSSGYYHYKYYGMAVWGQGTTVTVSS
VL: QSVLTQPPSVSAAPGQKVTISCSGSSSNIGNNYVSWYQQLPGTAPKLLIYDNNKRPSGIPDRFSGSKSGTSTTLGITGLQTGDEADYYCGTWDSRLSAVVFGGGTKLTVL
As for B1, in the data set with CGRP [10] (94 erenumab treated EM and CM, basal 14.1 (8.2–33.9)), the “serum CGRP at T1, median (IQR)” value is 13.8 pg/mL. Besides, in the data set on CGRP [10], the “plasma CGRP 4 months after treatment cessation (V2), median (IQR)” value (“plasma CGRP 4 months” for short) was 30.3 pg/mL and the “plasma CGRP at last injection (V1), median (IQR)” value (shortened to “plasma CGRP at last injection”) is 31.2 pg/mL. In addition, in the data set on CGRP [10] (mean ± SD, basal 198.90 ± 27.89), the “salivary CGRP at M3, EM without depression” value is listed as 235.05 pg/mL. In addition, in the data set with CGRP [10] (n = 6, mean ± SD, basal 460.69 ± 57.24), the “salivary CGRP at M3, CM with depression” value is reported as 446.99 pg/mL. Besides, the “salivary CGRP at M3, CM without depression” value in the data set with CGRP [10] (n = 10, mean ± SD, basal 194.34 ± 43.75) is recorded as 256.34 pg/mL.

B2: Galcanezumab: anti-CGRP monoclonal antibody (antibody, chains of the INN, looked up, V domains shown)
VH: QVQLVQSGAEVKKPGSSVKVSCKASGYTFGNYWMQWVRQAPGQGLEWMGAIYEGTGKTVYIQKFADRVTITADKSTSTAYMELSSLRSEDTAVYYCARLSDYVSGFGYWGQGTTVTVSS
VL: DIQMTQSPSSLSASVGDRVTITCRASKDISKYLNWYQQKPGKAPKLLIYYTSGYHSGVPSRFSGSGSGTDFTLTISSLQPEDFATYYCQQGDALPPTFGGGTKVEIK
B2: in the data set on CGRP [10], the “plasma CGRP 4 months” value is reported as 1853.2 pg/mL and the “plasma CGRP at last injection” value is listed as 5439.3 pg/mL.

B3: Fremanezumab: anti-CGRP monoclonal antibody (antibody, chains of the INN, looked up, V domains shown)
VH: EVQLVESGGGLVQPGGSLRLSCAASGFTFSNYWISWVRQAPGKGLEWVAEIRSESDASATHYAEAVKGRFTISRDNAKNSLYLQMNSLRAEDTAVYYCLAYFDYGLAIQNYWGQGTLVTVSS
VL: EIVLTQSPATLSLSPGERATLSCKASKRVTTYVSWYQQKPGQAPRLLIYGASNRYLGIPARFSGSGSGTDFTLTISSLEPEDFAVYYCSQSYNYPYTFGQGTKLEIK
Turning to B3, in the data set with CGRP [10], the “plasma CGRP 4 months” value is reported as 34.3 pg/mL and the “plasma CGRP at last injection” value is given as 29.4 pg/mL.
